Measured values as given in the NIST ThermoML archive (doi:10.1016/j.tca.2009.06.015).

Columns and labels:
[1] = refractive index (Na D-line) (dimensionless); xn = mol fraction of the nth substance listed; details: 101 kPa, Liquid, Standard Abbe refractometry
[2] = xn = mol fraction of the nth substance listed; details: 101 kPa, Liquid; for viscosity: Capillary tube (Ostwald / Ubbelohde) method; for mass density: Vibrating tube method

CC#N [acetonitrile] + CC(C)O
Details | mass density, [2] [kg/m3] | refractive index, [1] | viscosity, [2] [mPa·s]
293.15 K, x1 = 0.0496 | 784.97 | 1.3757 | 1.972
293.15 K, x1 = 0.0906 | 784.72 | 1.3751 | 1.688
293.15 K, x1 = 0.1529 | 784.31 | 1.3737 | 1.368
293.15 K, x1 = 0.2022 | 783.9 | 1.3726 | 1.176
293.15 K, x1 = 0.2783 | 783.36 | 1.3705 | 0.9608
293.15 K, x1 = 0.3678 | 782.71 | 1.3677 | 0.7912
293.15 K, x1 = 0.4768 | 782.02 | 1.364 | 0.6502
293.15 K, x1 = 0.6132 | 781.53 | 1.359 | 0.51
293.15 K, x1 = 0.7714 | 781.13 | 1.3528 | 0.4156
293.15 K, x1 = 0.9207 | 781.26 | 1.3469 | 0.3716
293.15 K, x1 = 1 | 782.04 | 1.3436 | 0.3542
298.15 K, x1 = 0.0496 | 780.76 | 1.3733 | 1.691
298.15 K, x1 = 0.0906 | 780.3 | 1.3724 | 1.461
298.15 K, x1 = 0.1529 | 779.7 | 1.3713 | 1.207
298.15 K, x1 = 0.2022 | 779.7 | 1.3702 | 1.044
298.15 K, x1 = 0.2783 | 779.2 | 1.3687 | 0.8677
298.15 K, x1 = 0.3678 | 777.65 | 1.3667 | 0.7248
298.15 K, x1 = 0.4768 | 778.79 | 1.3635 | 0.6062
298.15 K, x1 = 0.6132 | 776.2 | 1.3591 | 0.4735
298.15 K, x1 = 0.7714 | 775.79 | 1.3528 | 0.384
298.15 K, x1 = 0.9207 | 775.95 | 1.3452 | 0.3499
298.15 K, x1 = 1 | 776.64 | 1.3411 | 0.3369
303.15 K, x1 = 0.0496 | 776.32 | 1.3715 | 1.474
303.15 K, x1 = 0.0906 | 775.84 | 1.3707 | 1.288
303.15 K, x1 = 0.1529 | 775.13 | 1.3694 | 1.069
303.15 K, x1 = 0.2022 | 774.54 | 1.3684 | 0.9367
303.15 K, x1 = 0.2783 | 773.97 | 1.3666 | 0.7975
303.15 K, x1 = 0.3678 | 772.88 | 1.3641 | 0.6615
303.15 K, x1 = 0.4768 | 771.84 | 1.3608 | 0.5492
303.15 K, x1 = 0.6132 | 771.13 | 1.3561 | 0.4429
303.15 K, x1 = 0.7714 | 770.52 | 1.35 | 0.3617
303.15 K, x1 = 0.9207 | 770.59 | 1.3433 | 0.3311
303.15 K, x1 = 1 | 771.21 | 1.339 | 0.3254
308.15 K, x1 = 0.0496 | 771.86 | 1.3694 | 1.296
308.15 K, x1 = 0.0906 | 771.31 | 1.3687 | 1.15
308.15 K, x1 = 0.1529 | 770.57 | 1.3679 | 0.9576
308.15 K, x1 = 0.2022 | 769.92 | 1.367 | 0.846
308.15 K, x1 = 0.2783 | 768.98 | 1.3657 | 0.7168
308.15 K, x1 = 0.3678 | 767.8 | 1.3637 | 0.6057
308.15 K, x1 = 0.4768 | 766.44 | 1.3605 | 0.5051
308.15 K, x1 = 0.6132 | 765.75 | 1.3557 | 0.4111
308.15 K, x1 = 0.7714 | 765.26 | 1.3491 | 0.3442
308.15 K, x1 = 0.9207 | 765.18 | 1.3417 | 0.3202
308.15 K, x1 = 1 | 765.75 | 1.3371 | 0.3082
